Laboratory results as given in patent US20260272908A1 (VANDERBILT UNIVERSITY, priority 2023, published 2026).
“Also recorded” adds a separate entry of the source.

How the values were obtained:
p-STAT3^Y705 = assay: Western blot for phospho-STAT3 in hPCO lines; assay type: cell-based, human
Text: FIG. 7C-7D show Western blot analysis for p-STAT3 and p-ERK in three Pyr-resistant hPCO lines after Pyr treatment (FIG. 7C) and ratios of p-STAT3/t-STAT3 and p-ERK/t-ERK (FIG. 7D). FIG. 7E-7F show a Western blot for basal p-STAT3 and p-ERK levels in Pyr-sensitive and Pyr-resistant hPCO lines (FIG. 7E), and ratios of p-STAT3/t-STAT3 and p-ERK/t-ERK (FIG. 7F). FIG. 7G-7H show a Western blot for p-STAT3 and p-ERK in hPCO-3 after treatment of trametinib (Tra), Pyr, and their combinations (FIG. 7G), and ratios of p-STAT3/t-STAT3 and p-ERK/t-ERK (FIG. 7H). […] FIG. 7K-7L show phase-contrast images of Pyr-sensitive hPCO-2 treated with DMSO, Pyr, STAT3-IN-1, Sttatic, and Cryptotanshinone (CPT) for 6 days (FIG. 7K) and quantitation of organoid diameters before and after treatment (FIG. 7L). Mean±standard deviation. […]
Total proteins were extracted from organoids using radioimmunoprecipitation assay buffer (10 mmol/L Tris-HC, pH 7.2, 150 mmol/L NaCl, 5 mmol/L EDTA, 0.1% sodium dodecyl sulfate, 1.0% Triton X-100, 1% deoxycholate) with protease inhibitors. The protein concentration was measured The Bio-Rad Protein Assay (Bio-Rad Laboratories, Hercules, CA). […] After washes with TBS-T, chemiluminescence was detected with an Amersham Imager 680 instrument (GE Healthcare) after 1 mL of the SuperSignal West Femto Maximum Sensitivity Substrate (ThermoFisher) was applied to the membranes.

Mist1-Kras mice = assay: Pyrvinium treatment of Mist1-Kras mice (metaplasia progression to dysplasia, gastric corpus histology and immunostaining); assay type: in vivo, mouse
Method: FIG. 5B schematically illustrates the H&E (top) and immunostaining for UEA1 (middle) and Ki-67 (bottom) in the wild type mice treated with Pyr for 2 weeks and Mist1-Kras mice treated with DMSO or Pyr for 1 or 2 weeks. FIG. 5C schematically illustrates the quantitation of Ki-67-positive cells per 20× field. […] Mean±standard deviation. Unpaired t-test or one-way ANOVA with Tukey's multiple comparisons. ns, not significant. *P<0.05. **P<0.01. ***P<0.001. Scale bar=100 μM.
To prepare formaldehyde-fixed paraffin-embedded (FFPE) organoids/spheres, Matrigel domes containing organoids/spheres were fixed in 4% PFA at room temperature for 30 min. The fixed organoids were embedded in HistoGel™ (Thermo Fisher Scientific) followed by a wash in PBS for 1 min and processed according to a standard histological protocol for paraffin embedding. Human tissues were fixed in 10% neutral buffered formalin (NBF) for 1 week at room temperature and mouse tumor tissues were fixed in 4% paraformaldehyde (PFA) solution overnight at 4° C. The fixed tissues were transferred into 70% ethanol and processed according to a standard histological protocol for subsequent paraffin embedding. Four to five micrometers of organoid/sphere or tissue paraffin sections were de-paraffinized in Histoclear solution (Electron Microscopy Services) and rehydrated through a series of ethanol (100%, 95% and 75%).
Antigen retrieval was performed using a pH 6 or pH 9 target retrieval solution (Dako) in a pressure cooker for 15 min and cooled for 1 hour. For immunofluorescence staining, each section was incubated in serum-free protein block solution (Dako) at room temperature for 1.5 hours. Primary antibodies were diluted in Antibody Diluent with background reducing components (Dako) and applied to sections, then incubated overnight at 4° C. Slides were washed in PBS for 5 min three times and secondary antibodies diluted in Antibody Diluent (Dako) were applied to each section. Sections were incubated at room temperature for 1 hour and PBS with Hoechst (1:5000) was applied to the sections for 5 min for nuclei counterstaining. Slides were washed in PBS for 5 min three times, mounted with ProLong™ Gold Antifade Mountant (ThermoFisher) and cover slipped. All fluorescence images were acquired using a Zeiss Axio Imager M2 microscope with Axiovision digital imaging system or scanned using the Aperio Versa 200 Fluorescent Slide Scanner (Leica) at the Vanderbilt Digital Histology Shared Resource. Preparation and overlay of fluorescence images were performed using Adobe Photoshop.
For immunohistochemical staining, sections were blocked in Peroxidase Blocking Solution (Vector Laboratories) at room temperature for 20 min followed by serum-free protein block solution (Dako) at room temperature for 1.5 hours. Primary antibodies were diluted in Antibody Diluent with background reducing components (Dako) and applied to sections, then incubated overnight at 4° C. Horseradish-peroxidase (HRP)-conjugated secondary antibodies were applied to sections and incubated for 15 min at room temperature followed by three washes in PBS for 5 min each. ImmPRESS polymer detection reagent and ImmPACT DAB substrate kits (Vector Laboratories) were used for antibody detection. Images were scanned on a SCN400 slide scanner (Leica) at 20× magnification.
(§1) One or two weeks after either DMSO or pyrvinium treatment, gastric mucosa in each group of mice was examined.

Meta4 organoids = conditions: pyrvinium, 1 day
wild-type mice = assay: Histopathology of major organs in wild-type mice; assay type: in vivo, mouse; conditions: 4 mg/L in drinking water, 2 weeks
Method: Hematoxylin and eosin images were obtained from wild-type mice treated with either dimethyl sulfoxide (DMSO) or Pyr (4 mg/L in drinking water) for a duration of 2 weeks. Scale bar=100 μm.
as §1

[1] = Mist1-Kras mice 3 months after tamoxifen, pyrvinium 1 or 2 weeks
[2] = Mist1-Kras mice, pyrvinium 2 weeks

Cc1cc(/C=C/c2ccc3cc(N(C)C)ccc3[n+]2C)c(C)n1-c1ccccc1 [pyrvinium]
p-STAT3^Y705 levels (p-STAT3^Y705; three pyrvinium-resistant hPCO lines): no significant differences | p-STAT3^Y705 levels (p-STAT3^Y705; three pyrvinium-sensitive hPCO lines): decreased | acid-secreting parietal cells in corpus mucosa (Mist1-Kras mice; [1]): gradually repopulated the corpus mucosa | number of hyperplastic foveolar glands with UEA1 and Ki-67 positive proliferating cells (Mist1-Kras mice; [1]): significantly decreased | CD4^+ T cell population (Mist1-Kras mice; [2]): dramatic decrease | CD8^+ T cells (Mist1-Kras mice; [2]): did not show a significant difference | CD19^+ B cells (Mist1-Kras mice; [2]): did not show a significant difference | CD163-positive M2-macrophages (Mist1-Kras mice; [2]): significantly decreased | NK cells (Mist1-Kras mice; [2]): significantly decreased | Pim-1 (immunostaining, gastric corpus) (Mist1-Kras mice; [2]): downregulation | number of dysplastic glands (Mist1-Kras mice; [2]): significant decrease | p-STAT3 (immunostaining, gastric corpus) (Mist1-Kras mice; [2]): downregulation | total number of CD3^+ T cells (Mist1-Kras mice; [2]): decreased | DSC (dysplastic stem cell) subpopulation (Meta4 organoids): not observed | STAT3-target genes Fos, Fosb, and Jun (Meta4 organoids): downregulated | binding and transcription regulator activities (PANTHER gene ontology) (Meta4 organoids): decreased | cells damaged and mostly differentiated cells among treated cells (Meta4 organoids): over 73.9% | damage-related genes Dusp4, Ddit3 and Areg (Meta4 organoids): upregulated | histopathology of major organs (stomach, esophagus, liver, kidney, heart, lung, spleen) (wild-type mice): did not induce any noticeable histopathological abnormalities; also recorded: unaffected
